How the values were obtained:
Type in all cases: in vivo
[1] = system: velvetleaf (Abutilon theophrasti); test: Test G Post-Emergence Protocol; conditions: Abutilon theophrasti, post-emergence, 312 h, read-out: Velvetleaf damage rating; for pest or weed control at 15.625 g/ha: 15.625 g ai/ha, evaluated after 13 days (100=total damage to plant; 0=no damage to plant); for pest or weed control at 62.5 g/ha: 62.5 g ai/ha; for pest or weed control at 62.5 g/ha / pest or weed control at 250 g/ha: evaluated after 13 days, 100=total damage to plant, 0=no damage to plant; for pest or weed control at 250 g/ha: 250 g ai/ha
Outline: (§1)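 Eight days post-sowing, plants received a spray of test compound (acetone/water 50:50, 0.5% Tween 20) at 15.625, 62.5 or 250 g/ha. Glasshouse regime thereafter: 24/16 °C, 14 h light, 65% humidity. Assessment after 13 days on a 0–100 damage scale.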

[2] = system: barnyardgrass (Echinochloa crus-galli); test: Test G Post-Emergence Protocol; conditions: Echinochloa crus-galli, post-emergence, 312 h, read-out: Barnyardgrass damage rating; for pest or weed control at 15.625 g/ha: 15.625 g ai/ha, evaluated after 13 days (100=total damage to plant; 0=no damage to plant); for pest or weed control at 62.5 g/ha: 62.5 g ai/ha; for pest or weed control at 62.5 g/ha / pest or weed control at 250 g/ha: evaluated after 13 days, 100=total damage to plant, 0=no damage to plant; for pest or weed control at 250 g/ha: 250 g ai/ha
Outline: as §1

corn (Zea mays) [3] = test: Test G Post-Emergence Protocol; conditions: Zea mays, post-emergence, 312 h, read-out: Corn damage rating; for plant injury at 15.625 g/ha: 15.625 g ai/ha, evaluated after 13 days (100=total damage to plant; 0=no damage to plant); for plant injury at 62.5 g/ha: 62.5 g ai/ha; for plant injury at 62.5 g/ha / plant injury at 250 g/ha: evaluated after 13 days, 100=total damage to plant, 0=no damage to plant; for plant injury at 250 g/ha: 250 g ai/ha
Outline: as §1

[4] = system: redroot pigweed (Amaranthus retroflexus); test: Test G Post-Emergence Protocol; conditions: Amaranthus retroflexus, post-emergence, 312 h, read-out: Pigweed, Redroot damage rating; for pest or weed control at 15.625 g/ha: 15.625 g ai/ha, evaluated after 13 days (100=total damage to plant; 0=no damage to plant); for pest or weed control at 62.5 g/ha: 62.5 g ai/ha; for pest or weed control at 62.5 g/ha / pest or weed control at 250 g/ha: evaluated after 13 days, 100=total damage to plant, 0=no damage to plant; for pest or weed control at 250 g/ha: 250 g ai/ha
Outline: as §1

[5] = system: giant foxtail (Setaria faberi); test: Test G Post-Emergence Protocol; conditions: Setaria faberi, post-emergence, 312 h, read-out: Foxtail, Giant damage rating; for pest or weed control at 15.625 g/ha: 15.625 g ai/ha, evaluated after 13 days (100=total damage to plant; 0=no damage to plant); for pest or weed control at 62.5 g/ha: 62.5 g ai/ha; for pest or weed control at 62.5 g/ha / pest or weed control at 250 g/ha: evaluated after 13 days, 100=total damage to plant, 0=no damage to plant; for pest or weed control at 250 g/ha: 250 g ai/ha
Outline: as §1

[6] = system: ivy-leaved morning glory (Ipomoea hederacea); test: Test G Post-Emergence Protocol; conditions: Ipomoea, post-emergence, 312 h, read-out: Morningglory, Ivy-leaved damage rating; for pest or weed control at 15.625 g/ha: 15.625 g ai/ha, evaluated after 13 days (100=total damage to plant; 0=no damage to plant); for pest or weed control at 62.5 g/ha: 62.5 g ai/ha; for pest or weed control at 62.5 g/ha / pest or weed control at 250 g/ha: evaluated after 13 days, 100=total damage to plant, 0=no damage to plant; for pest or weed control at 250 g/ha: 250 g ai/ha
Outline: as §1

[7] = system: velvetleaf (Abutilon theophrasti); test: Test G Pre-Emergence Protocol; conditions: Abutilon theophrasti, pre-emergence, 312 h, evaluated after 13 days; for pest or weed control at 15.625 g/ha: 15.625 g ai/ha; for pest or weed control at 15.625 g/ha / pest or weed control at 250 g/ha: read-out: Velvetleaf damage rating (100=total damage to plant; 0=no damage to plant); for pest or weed control at 62.5 g/ha: 62.5 g ai/ha, 100=total damage to plant, 0=no damage to plant, read-out: Velvetleaf damage rating; for pest or weed control at 250 g/ha: 250 g ai/ha
Outline: (§2)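 Scores are visual damage ratings from 0 (no damage) to 100 (total plant kill), taken 13 days after treatment. Compound was sprayed one day post-sowing at 15.625, 62.5 or 250 g/ha in 50:50 acetone/water with 0.5% Tween 20.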

[8] = system: barnyardgrass (Echinochloa crus-galli); test: Test G Pre-Emergence Protocol; conditions: Echinochloa crus-galli, pre-emergence, 312 h, evaluated after 13 days; for pest or weed control at 15.625 g/ha: 15.625 g ai/ha; for pest or weed control at 15.625 g/ha / pest or weed control at 250 g/ha: read-out: Barnyardgrass damage rating (100=total damage to plant; 0=no damage to plant); for pest or weed control at 62.5 g/ha: 62.5 g ai/ha, 100=total damage to plant, 0=no damage to plant, read-out: Barnyardgrass damage rating; for pest or weed control at 250 g/ha: 250 g ai/ha
Outline: as §2

corn (Zea mays) [9] = test: Test G Pre-Emergence Protocol; conditions: Zea mays, pre-emergence, 312 h, evaluated after 13 days; for plant injury at 15.625 g/ha: 15.625 g ai/ha; for plant injury at 15.625 g/ha / plant injury at 250 g/ha: read-out: Corn damage rating (100=total damage to plant; 0=no damage to plant); for plant injury at 62.5 g/ha: 62.5 g ai/ha, 100=total damage to plant, 0=no damage to plant, read-out: Corn damage rating; for plant injury at 250 g/ha: 250 g ai/ha
Outline: as §2

[10] = system: redroot pigweed (Amaranthus retroflexus); test: Test G Pre-Emergence Protocol; conditions: Amaranthus retroflexus, pre-emergence, 312 h, evaluated after 13 days; for pest or weed control at 15.625 g/ha: 15.625 g ai/ha; for pest or weed control at 15.625 g/ha / pest or weed control at 250 g/ha: read-out: Pigweed, Redroot damage rating (100=total damage to plant; 0=no damage to plant); for pest or weed control at 62.5 g/ha: 62.5 g ai/ha, 100=total damage to plant, 0=no damage to plant, read-out: Pigweed, Redroot damage rating; for pest or weed control at 250 g/ha: 250 g ai/ha
Outline: as §2

[11] = system: giant foxtail (Setaria faberi); test: Test G Pre-Emergence Protocol; conditions: Setaria faberi, pre-emergence, 312 h, evaluated after 13 days; for pest or weed control at 15.625 g/ha: 15.625 g ai/ha; for pest or weed control at 15.625 g/ha / pest or weed control at 250 g/ha: read-out: Foxtail, Giant damage rating (100=total damage to plant; 0=no damage to plant); for pest or weed control at 62.5 g/ha: 62.5 g ai/ha, 100=total damage to plant, 0=no damage to plant, read-out: Foxtail, Giant damage rating; for pest or weed control at 250 g/ha: 250 g ai/ha
Outline: as §2

[12] = system: ivy-leaved morning glory (Ipomoea hederacea); test: Test G Pre-Emergence Protocol; conditions: Ipomoea, pre-emergence, 312 h, evaluated after 13 days; for pest or weed control at 15.625 g/ha: 15.625 g ai/ha; for pest or weed control at 15.625 g/ha / pest or weed control at 250 g/ha: read-out: Morningglory, Ivy-leaved damage rating (100=total damage to plant; 0=no damage to plant); for pest or weed control at 62.5 g/ha: 62.5 g ai/ha, 100=total damage to plant, 0=no damage to plant, read-out: Morningglory, Ivy-leaved damage rating; for pest or weed control at 250 g/ha: 250 g ai/ha
Outline: as §2

COc1cc(C2CN(C)C(=O)C2C(=O)Nc2cccc(F)c2F)cc(C(F)(F)F)c1F (stereo not drawn) [Compound 1701]
pest or weed control at 15.625 g/ha [1]: 0%
pest or weed control at 62.5 g/ha [1]: 0%
pest or weed control at 250 g/ha [1]: 0%
pest or weed control at 15.625 g/ha [2]: 10%
pest or weed control at 62.5 g/ha [2]: 60%
pest or weed control at 250 g/ha [2]: 70%
plant injury at 15.625 g/ha (corn (Zea mays) [3]): 10%
plant injury at 62.5 g/ha (corn (Zea mays) [3]): 30%
plant injury at 250 g/ha (corn (Zea mays) [3]): 50%
pest or weed control at 15.625 g/ha [4]: 0%
pest or weed control at 62.5 g/ha [4]: 0%
pest or weed control at 250 g/ha [4]: 30%
pest or weed control at 15.625 g/ha [5]: 40%
pest or weed control at 62.5 g/ha [5]: 60%
pest or weed control at 250 g/ha [5]: 60%
pest or weed control at 15.625 g/ha [6]: 0%
pest or weed control at 62.5 g/ha [6]: 0%
pest or weed control at 250 g/ha [6]: 30%
pest or weed control at 15.625 g/ha [7]: 0%
pest or weed control at 62.5 g/ha [7]: 0%
pest or weed control at 250 g/ha [7]: 0%
pest or weed control at 15.625 g/ha [8]: 0%
pest or weed control at 62.5 g/ha [8]: 30%
pest or weed control at 250 g/ha [8]: 70%
plant injury at 15.625 g/ha (corn (Zea mays) [9]): 0%
plant injury at 62.5 g/ha (corn (Zea mays) [9]): 0%
plant injury at 250 g/ha (corn (Zea mays) [9]): 30%
pest or weed control at 15.625 g/ha [10]: 0%
pest or weed control at 62.5 g/ha [10]: 0%
pest or weed control at 250 g/ha [10]: 10%
pest or weed control at 15.625 g/ha [11]: 40%
pest or weed control at 62.5 g/ha [11]: 80%
pest or weed control at 250 g/ha [11]: 90%
pest or weed control at 15.625 g/ha [12]: 0%
pest or weed control at 62.5 g/ha [12]: 20%
pest or weed control at 250 g/ha [12]: 20%

CCOc1cc(C)cc(C2CN(C)C(=O)C2C(=O)Nc2cccc(F)c2F)c1 (stereo not drawn) [Compound 1692]
pest or weed control at 15.625 g/ha [1]: 0%
pest or weed control at 62.5 g/ha [1]: 20%
pest or weed control at 250 g/ha [1]: 30%
pest or weed control at 15.625 g/ha [2]: 40%
pest or weed control at 62.5 g/ha [2]: 70%
pest or weed control at 250 g/ha [2]: 80%
plant injury at 15.625 g/ha (corn (Zea mays) [3]): 20%
plant injury at 62.5 g/ha (corn (Zea mays) [3]): 50%
plant injury at 250 g/ha (corn (Zea mays) [3]): 80%
pest or weed control at 15.625 g/ha [4]: 0%
pest or weed control at 62.5 g/ha [4]: 40%
pest or weed control at 250 g/ha [4]: 40%
pest or weed control at 15.625 g/ha [5]: 60%
pest or weed control at 62.5 g/ha [5]: 80%
pest or weed control at 250 g/ha [5]: 80%
pest or weed control at 15.625 g/ha [6]: 40%
pest or weed control at 62.5 g/ha [6]: 30%
pest or weed control at 250 g/ha [6]: 70%
pest or weed control at 15.625 g/ha [7]: 0%
pest or weed control at 62.5 g/ha [7]: 0%
pest or weed control at 250 g/ha [7]: 20%
pest or weed control at 15.625 g/ha [8]: 20%
pest or weed control at 62.5 g/ha [8]: 70%
pest or weed control at 250 g/ha [8]: 80%
plant injury at 15.625 g/ha (corn (Zea mays) [9]): 0%
plant injury at 62.5 g/ha (corn (Zea mays) [9]): 60%
plant injury at 250 g/ha (corn (Zea mays) [9]): 80%
pest or weed control at 15.625 g/ha [10]: 0%
pest or weed control at 62.5 g/ha [10]: 10%
pest or weed control at 250 g/ha [10]: 10%
pest or weed control at 15.625 g/ha [11]: 60%
pest or weed control at 62.5 g/ha [11]: 80%
pest or weed control at 250 g/ha [11]: 90%
pest or weed control at 15.625 g/ha [12]: 0%
pest or weed control at 62.5 g/ha [12]: 0%
pest or weed control at 250 g/ha [12]: 30%

From patent publication US12077503B2, “Substituted cyclic amides and their use as herbicides” (FMC CORPORATION, priority 2015, dated 2024)
